Read-outs that look alike come from different tables or passages of the source.
What was measured:
[1] = system: d(TTGGGTT)4; design: method as in PMID 26922833; details: G quadruplex chemical shift difference; cited from earlier work
[2] = system: d(TTGGGTT)4; test: NMR titration of ligands with G-quadruplex oligonucleotide; format: binding; details: for Difference from 11.55 ppm (ppm) G3NH: 1H NMR chemical shift difference of G-quadruplex peak G3NH on ligand addition; for Difference from 11.22 ppm (ppm) G4NH: 1H NMR chemical shift difference of G-quadruplex peak G4NH on ligand addition; for Difference from 10.86 ppm (ppm) G5NH: 1H NMR chemical shift difference of G-quadruplex peak G5NH on ligand addition; for Difference from 1.58 ppm (ppm) T6CH3: 1H NMR chemical shift difference of G-quadruplex peak T6CH3 on ligand addition; for Difference from 7.23 ppm (ppm) T6H6/8: 1H NMR chemical shift difference of G-quadruplex peak T6H6/8 on ligand addition; for Δδ (ppm): G quadruplex chemical shift difference
Description: Compounds 2a–2e were evaluated for G-quadruplex interaction using NMR titration studies with d(TTGGGTT)4 with intercalation comparisons made against doxorubicin and nemorubicin (see ESI ^† S1). […] We also see the peaks for T6 (methyl, aromatic and ribose) shifting to a lower field in accord with the up-field shift of the G5 peaks. This change is explained by the formation of a complex between the ligand and the tetrad formed at G5, which pushes the T6 unit away from the guanine π-system. This intercalation framework agreed with ESI/MS carried out which illustrated a 1 : 1 complex.[17]
Maximum line broadening occurs at a ratio of 1 : 1 drug to G-quadruplex and chemical shift difference changing up to 1 : 1 with the bound and unbound peaks being present. […]
This oligonucleotide solvent mix was then micro-pipetted at a volume of 0.6ml into NMR tubes. Stock solutions of drug compounds in DMSO-d6 were used to make up the molar ratios of 0.125:1, 0.25:1, 0.5:1 and 1:1 drug to oligomer.
A non-active drug (TC102) and DMSO on its own were added as controls to validate that the effects on the spectra were from cytotoxic elements of the drug compounds rather than the effects from DMSO or addition of compound, which could change environment, pH or shimming of NMR instrument.
Spectra were acquired at 300 K using a Bruker Avance III 600MHz FT‐NMR. The WATERNOESY parameter set which executes the pulse sequence noesygppr1d (Bruker, size […]
experiments with a pre-saturation delay during relaxation and mixing time (experiment time:
14 min 44 sec). With this pulse sequence, all non-exchangeable protons are detected in the deuterated D2O/H2O buffer solution. T1 relaxation experiments were acquired for d1 calibration with a modified version of the zggpw5 pulse sequence. With a saturation recovery […]
pulse and using water suppression (Bruker, size of fid 65536/11 F2/F1, […]
(experimental time 1 h 4 min 6 sec).
Bruker Topspin 3.5 pl7 was used for assignment of peaks, manual phasing, baseline correction and manual integration. Manual integration was done to ensure bias and slope was correct and that the integrals were all of the same width. Calculation of chemical shift change done through built in top spin distance measurements between peaks.

[3] = system: HeLa cells; test: Presto blue cell viability assay, HeLa cells; format: cell-based, Human; details: 24 hour incubation, n = 3
Description: Fig. 3 Cell culture, presto blue assay results for 2a, 2b, 2c, 2d, 2e. The data shown is after 24 hour incubation of drug treated HeLa cells. Top chart illustrates mean and SEM of HeLa cell viability at concentrations 100 to 1 μM with positive control (doxorubicin (N2)). In the top charts, values are normalized to negative control (DMSO) at a value of 1 (cell viability). The bottom charts then show the normalized absorbance percentage to the negative control (percentage cell viability) of log inhibitor concentration (multiplied by 10 to account for 1 μM concentration) IC50 values and R squared values are included in the chart. Error bars indicates standard error of mean from n = 3 experiments.
Compounds 2a–2e were subsequently tested against a HeLa cancer cell line (HeLa, American Type Culture Collection (ATCC) (ATCC® CCL-2™)) and they were all prepared in 100, 30, 10 and 1 μM concentrations so that IC50 values could be calculated to establish whether drugs were cytotoxic to HeLa cells (see ESI ^† S1).
Cell suspension (200μl) containing 5000 healthy HeLa cells was seeded in 96-well plates (BDFalcon, Franklin Lakes, NJ) and allowed to attach and stabilize overnight at 37 °C with 5%
CO2. Aspiration of media and rinsing solution was done through pipetting off liquid. Cell viability was then tested with PrestoBlue assay.The presto blue assay was carried out in light sensitive conditions. 100μl of PrestoBlue solution (10% in medium) was added to each well and the plates were incubated at 37 °C for 1 hour. After incubation time, the change in florescence was measured at 570/600 nm using a Spectra Max fluorescence multi-well plate reader.
Dissociation constants were calculated using the curve-fitting software Graphpad Prism 8.
Incubation was done using Thermofisher Steri-Cycle CO2 Incubators and for plate reading Thermofisher Epoch Microplate Spectrophotometer was used. Centrifugation was done by Thermo Scientific Sorvall ST 40 Centrifuge Series.
Commercially available DMEM (Dulbecco’s Modified Eagle Medium- low glucose), including sodium pyruvate and […], 500 mL, was obtained from Gibco, USA. All procedures carried out under sterile conditions, 94 mL of media was taken and the required volume of supplements (10 % Fetal Bovine Serum (FBS), 2 mM/mL Glutamine, 100 U/mL penicillin and 100 µg/mL streptomycin.) were added.
Cell Line and Cell Culture Conditions
Human cervical cancer cell lines (HeLa) were obtained from the American Type Culture Collection (ATCC) (ATCC® CCL-2™). HeLa cells were cultured in Dulbecco’s Eagle Modified Medium low glucose (DMEM) containing 10 % Fetal Bovine Serum (FBS), 2 mM/mL Glutamine, 100 U/mL penicillin and 100 µg/mL streptomycin.
%viable cells = 1 ‒ Number of blue cells x 100 […]
Cryovials were taken from the liquid nitrogen tank and thawed quickly at 37 °C. After that, the cell suspension was transferred to a 15 mL tube and 5 mL of the medium was added into the cell suspension drop by drop with gentle shaking. Centrifugation was done at 1500rpm for 5 min and then supernatant was discarded. After the pellet was resuspended with medium, they were seeded to T-25 flasks. Subsequent to 12 hours incubation, the media was removed and washed with DPBS (1X) (pH:7.4) containing 10 mM sodium dibasic phosphate, 2.7 mM KCI, 2 mM Potassium phosphate,137 mM NaCI. Fresh media was added to the cell monolayer a […]
Assays were carried out using a 96 well plate. This 96-well plate contains one blank, 3 controls which contains cells including a negative control with media, one vehicle control which is DMSO and medium solutions, and a positive control of Doxorubicin (200µL) and media. Drugs were prepared in 100, 30, 10, 1 µM concentrations to make 8 seeded well plates in total which were done in triplicate. All drugs were prepared in DMSO and then diluted in media to give 5µL of DMSO max in 100µM treatments which is controlled by vehicle with a DMSO volume

Compound | Δδ (ppm) [1] [ppm] | Difference from 11.55 ppm (ppm) G3NH [2] [ppm] | Difference from 11.22 ppm (ppm) G4NH [2] [ppm] | Difference from 10.86 ppm (ppm) G5NH [2] [ppm] | Difference from 1.58 ppm (ppm) T6CH3 [2] [ppm] | Difference from 7.23 ppm (ppm) T6H6/8 [2] [ppm] | Δδ (ppm) [2] [ppm] | IC50 ([3]; Homo sapiens, HeLa, 24 h) [µM] | IC50 [3] [µM]
COc1cccc2c1C(=O)c1c(O)c3c(c(O)c1C2=O)C[C@@](O)(C(=O)CO)C[C@@H]3O[C@H]1C[C@H](N)[C@H](O)[C@H](C)O1 [Doxorubicin] | 0.31 |  |  |  |  |  |  |  | 
C(=N\CCCN1CCOCC1)/c1c2ccccc2c(/C=N/CCCN2CCOCC2)c2ccccc12 [Compound 2b] |  | −0.066 | −0.135 | −0.34 | 0.093 | 0.22 | 0.34 | 24.4 | 
C(=N\Cc1ccc2c(c1)OCO2)/c1c2ccccc2c(/C=N/Cc2ccc3c(c2)OCO3)c2ccccc12 [Compound 2a] |  | −0.04 | −0.08 | −0.2 | 0.09 | 0.17 | 0.2 | 18.1 | 
COc1cccc2c1C(=O)c1c(O)c3c(c(O)c1C2=O)C[C@@](O)(C(=O)CO)C[C@@H]3O[C@H]1C[C@H](N2CCO[C@H](OC)C2)[C@H](O)[C@H](C)O1 [Nemorubicin] | 0.31 |  |  |  |  |  |  |  | 
C(=N\CCN1CCCCC1)/c1c2ccccc2c(/C=N/CCN2CCCCC2)c2ccccc12 [Compound 2d] |  | −0.03 | −0.07 | −0.13 | 0.094 | 0.16 | 0.13 | 24 | 23.8
C(=N\CCc1c[nH]c2ccccc12)/c1c2ccccc2c(/C=N/CCc2c[nH]c3ccccc23)c2ccccc12 [Compound 2c] |  | −0.06 | −0.115 | −0.25 | 0.157 | 0.126 | 0.25 | 30.5 | 30.6
Cc1cnc(/N=C/c2c3ccccc3c(/C=N/c3ncc(C)s3)c3ccccc23)s1 [Compound 2e] |  | −0.056 | −0.11 | −0.24 | 0.146 | 0.19 | 0.24 | 20.5 | 

Reference: publication PMC8152782, “Synthesis and evaluation of bis(imino)anthracene derivatives as G-quadruplex ligands” (RSC Medicinal Chemistry, 2021)
